Reference: patent publication US20070049564A1 (Wyeth, priority 2005, published 2007)
Converted amounts (≈) assume the structure as drawn. Read-outs that look alike come from different tables or passages of the source.

Columns and labels:
S. aureus GC 1131 = assay: MIC, broth microdilution; conditions: Staphylococcus aureus, GC1131, S. aureus GC 1131
E. coli GC 6465 = assay: MIC, broth microdilution; conditions: Escherichia coli, GC6465, E. coli GC 6465
Procedure: (§1) Antimicrobial susceptibility testing. The in vitro activities of the antibiotics are determined by the broth microdilution method as recommended by the National Committee for Clinical Laboratory Standards (NCCLS) (1). Mueller-Hinton II broth (MHBII)(BBL Cockeysville, Md.) is the medium employed in the testing procedures. Microtiter plates containing serial dilutions of each antimicrobial agent are inoculated with each organism to yield the appropriate density (10^5 CFU/ml) in a 100 μl final volume. The plates are incubated for 18-22 hours at 35° C. in ambient air.
Representative compounds were first incubated in mouse serum for an hour prior to the in vitro testing against a panel of selected gram-positive and gram-negative bacteria strains. All compounds were also pre-incubated in water for an hour prior to testing as control.

E. coli GC 2233 = assay: MIC, broth microdilution; conditions: Escherichia coli, GC2233, E. coli GC 2233
S. pyogenes GC 4563 = assay: MIC, broth microdilution; conditions: Streptococcus pyogenes, GC4563, S. pyogenes GC 4563
Staph. = assay: Range of MIC for Staph. strains, including MRSA; conditions: Staphylococcus aureus, MRSA
E. coli GC 2272 = assay: MIC, broth microdilution; conditions: Escherichia coli, GC2272, E. coli GC 2272
E. faecium GC 2243 = assay: MIC, broth microdilution; conditions: Enterococcus faecium, GC2243, E. faecium GC 2243
S. aureus GC 4536 = assay: MIC, broth microdilution; conditions: Staphylococcus aureus, GC4536, S. aureus GC 4536
E. coli GC 2234 = assay: MIC, broth microdilution; conditions: Escherichia coli, GC2234, E. coli GC 2234
E. coli GC 2236 = assay: MIC, broth microdilution; conditions: Escherichia coli, GC2236, E. coli GC 2236
S. epidermidis GC 4935 = assay: MIC, broth microdilution; conditions: Staphylococcus epidermidis, GC4935, S. epidermidis GC 4935
E. faecalis GC 2265 = assay: MIC, broth microdilution; conditions: Enterococcus faecalis, GC2265, E. faecalis GC 2265
c. albicans GC 3066 = assay: MIC, broth microdilution
S. aureus GC 6469 = assay: MIC, broth microdilution; conditions: Staphylococcus aureus, GC6469, S. aureus GC 6469
S. aureus GC 1079 = assay: MIC, broth microdilution; conditions: Staphylococcus aureus, GC1079, S. aureus GC 1079
E. coli GC 1073 = assay: MIC, broth microdilution; conditions: Escherichia coli, GC1073, E. coli GC 1073
Procedure: as §1
Representative compounds were first incubated in mouse serum for an hour prior to the in vitro testing against a panel of selected gram-positive and gram-negative bacteria strains. All compounds were also pre-incubated in water for an hour prior to testing as control. Representative compounds of Formula I were incubated in human serum prior to MIC determination.

S. pneumoniae+ GC 4465 = assay: MIC, broth microdilution; conditions: Streptococcus pneumoniae, S. pneumoniae+ GC 4465
S. aureus GC 6466 = assay: MIC, broth microdilution; conditions: Staphylococcus aureus, GC6466, S. aureus GC 6466
E. coli = assay: Range of MIC for E. coli strains; conditions: Escherichia coli
E. faecalis GC 4555 = assay: MIC, broth microdilution; conditions: Enterococcus faecalis, GC4555, E. faecalis GC 4555
[1] = read-out: Range of MIC, Staph (Mouse Serum)
[2] = read-out: Range of MIC, Staph (Water)
[3] = read-out: Range of MIC, Staph. (mouse serum)
[4] = read-out: Range of MIC, Staph. (water)
[5] = c. albicans GC 3066, Water pre-incubation
[6] = 20 h, read-out: Range of MIC, E. coli (Mouse Serum)
[7] = read-out: Range of MIC, E. coli (mouse serum)

CCCN(CC(=O)Nc1cc(N(C)C)c2c(c1O)C(=O)C1=C(O)[C@]3(O)C(=O)C(C(N)=O)=C(O)[C@@H](N(C)C)[C@@H]3C[C@@H]1C2)C(=O)OCOC(=O)C1CCC1 [Example 7, ({[(2-{[(5aR,6aS,7S,10aS)-9-(aminocarbonyl)-4,7-bis(dimethylamino)-1,8,10a,11-tetrahydroxy-10,12-dioxo-5,5a,6,6a,7,10,10a,12-octahydrotetracen-2-yl]amino}-2-oxoethyl)(propyl)amino]carbonyl}oxy)methyl cyclobutanecarboxylate]
MIC (S. aureus GC 1131; Mouse Serum pre-incubation): 1 µg/mL (≈ 1.37 µM)
MIC (S. aureus GC 1131; Water pre-incubation): 1 µg/mL (≈ 1.37 µM)
MIC (E. coli GC 6465; Mouse Serum pre-incubation): 16 µg/mL (≈ 22 µM)
MIC (E. coli GC 6465; Water pre-incubation): > 64 µg/mL
MIC (E. coli GC 2233; Mouse Serum pre-incubation): 0.5 µg/mL (≈ 0.687 µM)
MIC (E. coli GC 2233; Water pre-incubation): 4 µg/mL (≈ 5.5 µM)
MIC (S. pyogenes GC 4563; Mouse Serum pre-incubation): 0.25 µg/mL (≈ 0.344 µM)
MIC (S. pyogenes GC 4563; Water pre-incubation): 0.25 µg/mL (≈ 0.344 µM)
MIC (Staph.; [1]): 0.5 to 4 µg/mL (≈ 0.687 to 5.5 µM)
MIC (Staph.; [2]): 0.5 to 4 µg/mL (≈ 0.687 to 5.5 µM)
MIC (Staph.; [3]): 0.5 to 4 µg/mL (≈ 0.687 to 5.5 µM)
MIC (Staph.; [4]): 0.5 to 4 µg/mL (≈ 0.687 to 5.5 µM)
MIC (E. coli GC 2272; Mouse Serum pre-incubation): 0.5 µg/mL (≈ 0.687 µM)
MIC (E. coli GC 2272; Water pre-incubation): 4 µg/mL (≈ 5.5 µM)
MIC (E. faecium GC 2243; Mouse Serum pre-incubation): 0.25 µg/mL (≈ 0.344 µM)
MIC (E. faecium GC 2243; Water pre-incubation): 0.12 µg/mL (≈ 0.165 µM)
MIC (S. aureus GC 4536; Mouse Serum pre-incubation): 1 µg/mL (≈ 1.37 µM)
MIC (S. aureus GC 4536; Water pre-incubation): 1 µg/mL (≈ 1.37 µM)
MIC (E. coli GC 2234; Mouse Serum pre-incubation): 1 µg/mL (≈ 1.37 µM)
MIC (E. coli GC 2234; Water pre-incubation): 4 µg/mL (≈ 5.5 µM)
MIC (E. coli GC 2236; Mouse Serum pre-incubation): 0.25 µg/mL (≈ 0.344 µM)
MIC (E. coli GC 2236; Water pre-incubation): 2 µg/mL (≈ 2.75 µM)
MIC (S. epidermidis GC 4935; Mouse Serum pre-incubation): 2 µg/mL (≈ 2.75 µM)
MIC (S. epidermidis GC 4935; Water pre-incubation): 2 µg/mL (≈ 2.75 µM)
MIC (E. faecalis GC 2265; Mouse Serum pre-incubation): 1 µg/mL (≈ 1.37 µM)
MIC (E. faecalis GC 2265; Water pre-incubation): 2 µg/mL (≈ 2.75 µM)
MIC (c. albicans GC 3066; Candida albicans, GC3066): > 64 µg/mL
MIC (c. albicans GC 3066; [5]): >64 UG/ML
MIC (S. aureus GC 6469; Mouse Serum pre-incubation): 2 µg/mL (≈ 2.75 µM)
MIC (S. aureus GC 6469; Water pre-incubation): 4 µg/mL (≈ 5.5 µM)
MIC (S. aureus GC 1079; Mouse Serum pre-incubation): 1 µg/mL (≈ 1.37 µM)
MIC (S. aureus GC 1079; Water pre-incubation): 4 µg/mL (≈ 5.5 µM)
MIC (E. coli GC 1073; Mouse Serum pre-incubation): 0.5 µg/mL (≈ 0.687 µM)
MIC (E. coli GC 1073; Water pre-incubation): 8 µg/mL (≈ 11 µM)
MIC (S. pneumoniae+ GC 4465; Mouse Serum pre-incubation): 4 µg/mL (≈ 5.5 µM)
MIC (S. pneumoniae+ GC 4465; Water pre-incubation): 2 µg/mL (≈ 2.75 µM)
MIC (S. aureus GC 6466; Mouse Serum pre-incubation): 0.5 µg/mL (≈ 0.687 µM)
MIC (S. aureus GC 6466; Water pre-incubation): 0.5 µg/mL (≈ 0.687 µM)
MIC (E. coli; [6]): 0.25 to 2 µg/mL (≈ 0.344 to 2.75 µM)
MIC (E. coli; read-out: Range of MIC, E. coli (Water)): 2 to 16 µg/mL (≈ 2.75 to 22 µM)
MIC (E. coli; [7]): 0.25 to 2 µg/mL (≈ 0.344 to 2.75 µM)
MIC (E. coli; read-out: Range of MIC, E. coli (water)): 2 to 16 µg/mL (≈ 2.75 to 22 µM)
MIC (E. faecalis GC 4555; Mouse Serum pre-incubation): 0.5 µg/mL (≈ 0.687 µM)
MIC (E. faecalis GC 4555; Water pre-incubation): 1 µg/mL (≈ 1.37 µM)

CCCN(CC(=O)Nc1cc(N(C)C)c2c(c1O)C(=O)C1=C(O)[C@]3(O)C(=O)C(C(N)=O)=C(O)[C@@H](N(C)C)[C@@H]3C[C@@H]1C2)C(=O)OCOC(=O)c1ccc(F)cc1 [Example 8, ({[(2-{[(5aR,6aS,7S,10aS)-9-(aminocarbonyl)-4,7-bis(dimethylamino)-1,8,10a,11-tetrahydroxy-10,12-dioxo-5,5a,6,6a,7,10,10a,12-octahydrotetracen-2-yl]amino}-2-oxoethyl)(propyl)amino]carbonyl}oxy)methyl 4-fluorobenzoate]
MIC (S. aureus GC 1131; Mouse Serum pre-incubation): 1 µg/mL (≈ 1.3 µM)
MIC (S. aureus GC 1131; Water pre-incubation): 2 µg/mL (≈ 2.6 µM)
MIC (E. coli GC 6465; Mouse Serum pre-incubation): 8 µg/mL (≈ 10.4 µM)
MIC (E. coli GC 6465; Water pre-incubation): > 64 µg/mL
MIC (E. coli GC 2233; Mouse Serum pre-incubation): 1 µg/mL (≈ 1.3 µM)
MIC (E. coli GC 2233; Water pre-incubation): 32 µg/mL (≈ 41.7 µM)
MIC (S. pyogenes GC 4563; Mouse Serum pre-incubation): 0.12 µg/mL (≈ 0.156 µM)
MIC (S. pyogenes GC 4563; Water pre-incubation): 0.5 µg/mL (≈ 0.651 µM)
MIC (Staph.; [1]): 0.5 to 4 µg/mL (≈ 0.651 to 5.21 µM)
MIC (Staph.; [2]): 1 to 8 µg/mL (≈ 1.3 to 10.4 µM)
MIC (Staph.; [3]): 0.5 to 4 µg/mL (≈ 0.651 to 5.21 µM)
MIC (Staph.; [4]): 1 to 8 µg/mL (≈ 1.3 to 10.4 µM)
MIC (E. coli GC 2272; Mouse Serum pre-incubation): 1 µg/mL (≈ 1.3 µM)
MIC (E. coli GC 2272; Water pre-incubation): 32 µg/mL (≈ 41.7 µM)
MIC (E. faecium GC 2243; Mouse Serum pre-incubation): 0.25 µg/mL (≈ 0.326 µM)
MIC (E. faecium GC 2243; Water pre-incubation): 2 µg/mL (≈ 2.6 µM)
MIC (S. aureus GC 4536; Mouse Serum pre-incubation): 0.5 µg/mL (≈ 0.651 µM)
MIC (S. aureus GC 4536; Water pre-incubation): 2 µg/mL (≈ 2.6 µM)
MIC (E. coli GC 2234; Mouse Serum pre-incubation): 1 µg/mL (≈ 1.3 µM)
MIC (E. coli GC 2234; Water pre-incubation): 32 µg/mL (≈ 41.7 µM)
MIC (E. coli GC 2236; Mouse Serum pre-incubation): 1 µg/mL (≈ 1.3 µM)
MIC (E. coli GC 2236; Water pre-incubation): 32 µg/mL (≈ 41.7 µM)
MIC (S. epidermidis GC 4935; Mouse Serum pre-incubation): 2 µg/mL (≈ 2.6 µM)
MIC (S. epidermidis GC 4935; Water pre-incubation): 8 µg/mL (≈ 10.4 µM)
MIC (E. faecalis GC 2265; Mouse Serum pre-incubation): 2 µg/mL (≈ 2.6 µM)
MIC (E. faecalis GC 2265; Water pre-incubation): 8 µg/mL (≈ 10.4 µM)
MIC (c. albicans GC 3066; Candida albicans, GC3066): > 64 µg/mL
MIC (c. albicans GC 3066; [5]): >64 UG/ML
MIC (S. aureus GC 6469; Mouse Serum pre-incubation): 2 µg/mL (≈ 2.6 µM)
MIC (S. aureus GC 6469; Water pre-incubation): 8 µg/mL (≈ 10.4 µM)
MIC (S. aureus GC 1079; Mouse Serum pre-incubation): 2 µg/mL (≈ 2.6 µM)
MIC (S. aureus GC 1079; Water pre-incubation): 4 µg/mL (≈ 5.21 µM)
MIC (E. coli GC 1073; Mouse Serum pre-incubation): 1 µg/mL (≈ 1.3 µM)
MIC (E. coli GC 1073; Water pre-incubation): 32 µg/mL (≈ 41.7 µM)
MIC (S. pneumoniae+ GC 4465; Mouse Serum pre-incubation): 1 µg/mL (≈ 1.3 µM)
MIC (S. pneumoniae+ GC 4465; Water pre-incubation): 4 µg/mL (≈ 5.21 µM)
MIC (S. aureus GC 6466; Mouse Serum pre-incubation): 0.5 µg/mL (≈ 0.651 µM)
MIC (S. aureus GC 6466; Water pre-incubation): 1 µg/mL (≈ 1.3 µM)
MIC (E. coli; [6]): 1 to 2 µg/mL (≈ 1.3 to 2.6 µM)
MIC (E. coli; [7]): 1 to 2 µg/mL (≈ 1.3 to 2.6 µM)
MIC (E. faecalis GC 4555; Mouse Serum pre-incubation): 0.5 µg/mL (≈ 0.651 µM)
MIC (E. faecalis GC 4555; Water pre-incubation): 8 µg/mL (≈ 10.4 µM)
